Data: patent EP0346929B1, “Treating agent for Raynaud's disease” (DAIICHI PHARMACEUTICAL CO., LTD., priority 1988, dated 1989)
Where a name gives a salt, the structure may show the parent alone.

Test system: Laurate-Induced Peripheral Arterial Occlusive Diseases in Rats
Assay: Effect on progression of laurate-induced peripheral arterial occlusive diseases in rats
Type: in vivo
Experimental: Effect on Progression of Laurate-Induced Peripheral Arterial Occlusive Diseases in Rats
Male Wister-Imamichi rats weighing from 370 to 422 g (purchased from Dobutsu Hanshoku Kenkyukai) were used as test animals.
Rats were anesthetized with pentobarbital (50 mg/kg, i.p.), and the right femoral artery was exposed by surgical incision. 0.1 mℓ of a sodium laurate solution (1 mg of lauric acid/mℓ-saline, pH=8.0) was injected to the right femoral artery, haemostasis was secured by application of a surgical binding "Alonalpha" (a trade name, produced by Toa Gosei Kagaku Co.) to the punctured site of the artery, and the incision was closed with the surgical binding. The animals were then fed ad lib.
The degree of the lesions was graded to 0 - IV, 4 days after the operation for gangrene and 6 days after the operation for mummification or falling off as follows: normal apperance, 0; the affected region was limited to the nail parts, I; to the fingers, II; to the whole paw, III; and extended to the lower leg, IV.
As a test compound, 6-(1-imidazolylmethyl)-5,6,7,8-tetrahydronaphthalene-2-carboxylic acid hydrochloride 1/2 hydrate (hereinafter referred to as Compound A) was dissolved in physiological saline and administered to the left femoral vein at a dose of 3 mg/5 mℓ/kg 5 minutes before the laurate injection to the femoral artery. The effect of the Compound A on suppression of the lesions were examined. The animals in control group were injected with 5 mℓ/kg of saline alone in place of the Compound A. The results obtained are shown in Table 1 below.

## O=C(O)c1ccc2c(c1)CCC(Cn1ccnc1)C2 (centres unmarked) [Compound A, 6-(1-imidazolylmethyl)-5,6,7,8-tetrahydronaphthalene-2-carboxylic acid hydrochloride 1/2 hydrate]
Grade 0 = normal apperance, 3 mg/5 mℓ/kg into left femoral vein 5 minutes before laurate injection, 4 days after operation
  Number of Animals Suffering From: Gangrene After 4 Days, grade 0: 2
Grade 0 = normal apperance, 3 mg/5 mℓ/kg into left femoral vein 5 minutes before laurate injection, 6 days after operation
  Number of Animals Suffering From: Mummification or Falling Off After 6 Days, grade 0: 2
Grade I = affected region limited to the nail parts, 3 mg/5 mℓ/kg into left femoral vein 5 minutes before laurate injection, 4 days after operation
  Number of Animals Suffering From: Gangrene After 4 Days, grade I: 3
Grade I = affected region limited to the nail parts, 3 mg/5 mℓ/kg into left femoral vein 5 minutes before laurate injection, 6 days after operation
  Number of Animals Suffering From: Mummification or Falling Off After 6 Days, grade I: 1
Grade II = affected region limited to the fingers, 3 mg/5 mℓ/kg into left femoral vein 5 minutes before laurate injection, 4 days after operation
  Number of Animals Suffering From: Gangrene After 4 Days, grade II: 2
Grade II = affected region limited to the fingers, 3 mg/5 mℓ/kg into left femoral vein 5 minutes before laurate injection, 6 days after operation
  Number of Animals Suffering From: Mummification or Falling Off After 6 Days, grade II: 3
Grade III = affected region limited to the whole paw, 3 mg/5 mℓ/kg into left femoral vein 5 minutes before laurate injection, 6 days after operation
  Number of Animals Suffering From: Mummification or Falling Off After 6 Days, grade III: 1
Intravenous injection of 3 mg/kg, compared with control group
  grade of lesions: reduced the grade of lesions
